Results on eight molecules are retold here after ChEMBL document CHEMBL5360613, “Unveiling New KRASG12D Inhibitors: A Promising Approach for Pancreatic Cancer Therapy” (ACS Med Chem Lett, 2023).

What is called IC50 is the midpoint of a concentration-inhibition curve.

Each structure is given as a SMILES string.

The target of this assay is GTPase KRas (Homo sapiens, UniProt P01116, G12D). In words: Inhibition of KRAS G12D mutant in human PANC-1 cells assessed as reduction in phosphorylation of ERK 1/2 level incubated for 3 hrs. The class given is cell-based.
Chain of GTPase KRas (P01116 whole entry G12D): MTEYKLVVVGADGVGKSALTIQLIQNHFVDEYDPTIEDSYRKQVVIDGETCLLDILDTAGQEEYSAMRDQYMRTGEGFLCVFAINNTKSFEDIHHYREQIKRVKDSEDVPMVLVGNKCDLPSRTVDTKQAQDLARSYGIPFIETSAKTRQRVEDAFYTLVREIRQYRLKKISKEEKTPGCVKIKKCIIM
Consider `C#Cc1c(F)ccc2cc(O)cc(-c3ncc4c(N5CC6CCC(C)(C5)N6)cc(OC[C@@]56CCCN5C[C@H](F)C6)nc4c3F)c12` (stereo partly drawn), for which the IC50 worked out at 0.024 µM. Consider `C#Cc1c(F)ccc2cc(O)cc(-c3ncc4c(N5C[C@H]6CC[C@@H](C5)N6)cc(C#C[C@@]56CCCN5C[C@H](F)C6)nc4c3F)c12`, for which the IC50 amounted to 0.439 µM. Turning to `C#Cc1cccc2cc(O)cc(-c3ncc4c(N5C[C@H]6CC[C@@H](C5)N6)cc(OC[C@@]56CCCN5C[C@H](F)C6)nc4c3F)c12`, the IC50 is 0.0095 µM. Consider `C#Cc1c(F)ccc2cc(O)cc(-c3ncc4c(N5C[C@H]6CC[C@@H](C5)N6)cc(OC[C@@]56CCCN5C[C@H](F)C6)nc4c3F)c12`, for which the IC50 worked out at 0.0079 µM. Consider `CCc1c(F)ccc2cc(O)cc(-c3ncc4c(N5C[C@H]6CC[C@@H](C5)N6)cc(OC[C@@]56CCCN5C[C@H](F)C6)nc4c3F)c12`, for which the half-inhibitory concentration (IC50) is 0.046 µM. As for `Oc1cc(N2CCc3c(nc(OCC45CCCN4CCC5)nc3N3C[C@H]4CC[C@@H](C3)N4)C2)c2c(Cl)cccc2c1`, the figure is 0.015 µM; as for `Oc1cc(-c2ncc3c(N4C[C@H]5CC[C@@H](C4)N5)cc(OC[C@@]45CCCN4C[C@H](F)C5)nc3c2F)c2c(F)cccc2c1`, 0.04 µM; as for `CCc1c(F)ccc2cc(O)cc(-c3ncc4c(N5C[C@H]6CC[C@@H](C5)N6)cc(C#C[C@@]56CCCN5C[C@H](F)C6)nc4c3F)c12`, 0.305 µM.
